In ChEMBL document CHEMBL4507268 (2021):

Assays:
[1] = target: Alpha-1A adrenergic receptor (Homo sapiens) (UniProt P35348); settings: Compound concentration 10.0 uM
[2] = target: Cyclin-G-associated kinase (Homo sapiens) (UniProt O14976); settings: Compound concentration 1000.0 nM
[3] = target: T1, Serine/threonine-protein kinase PLK4 (Homo sapiens) (UniProt O00444); settings: Compound concentration 1000.0 nM
T1 sequence (whole entry): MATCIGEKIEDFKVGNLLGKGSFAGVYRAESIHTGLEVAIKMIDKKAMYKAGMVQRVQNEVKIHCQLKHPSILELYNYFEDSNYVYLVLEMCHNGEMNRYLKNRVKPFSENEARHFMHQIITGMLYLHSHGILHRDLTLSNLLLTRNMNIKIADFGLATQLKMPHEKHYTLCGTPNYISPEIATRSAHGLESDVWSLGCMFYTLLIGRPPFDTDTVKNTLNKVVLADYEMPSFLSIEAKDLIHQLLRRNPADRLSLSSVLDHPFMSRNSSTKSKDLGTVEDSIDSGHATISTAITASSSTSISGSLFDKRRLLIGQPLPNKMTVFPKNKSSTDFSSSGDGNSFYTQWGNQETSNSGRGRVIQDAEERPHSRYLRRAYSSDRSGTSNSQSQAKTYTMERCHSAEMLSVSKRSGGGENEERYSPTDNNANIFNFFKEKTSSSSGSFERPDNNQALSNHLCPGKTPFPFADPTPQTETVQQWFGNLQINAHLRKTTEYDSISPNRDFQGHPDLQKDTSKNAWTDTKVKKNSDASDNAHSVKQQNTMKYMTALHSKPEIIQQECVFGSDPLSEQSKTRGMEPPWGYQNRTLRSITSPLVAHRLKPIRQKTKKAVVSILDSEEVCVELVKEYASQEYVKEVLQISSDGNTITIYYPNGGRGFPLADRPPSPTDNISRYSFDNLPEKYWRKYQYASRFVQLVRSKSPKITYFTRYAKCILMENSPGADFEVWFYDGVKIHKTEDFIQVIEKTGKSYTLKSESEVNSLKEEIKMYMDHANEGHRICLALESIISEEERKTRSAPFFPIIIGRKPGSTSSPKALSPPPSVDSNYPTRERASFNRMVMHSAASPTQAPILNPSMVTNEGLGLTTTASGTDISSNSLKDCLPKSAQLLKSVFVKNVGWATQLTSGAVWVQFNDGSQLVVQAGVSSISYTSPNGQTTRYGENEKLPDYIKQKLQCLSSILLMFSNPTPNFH

[4] = tested on: eIF-2-alpha kinase GCN2 (Homo sapiens), Q9P2K8 [S808G]; settings: Compound concentration 1000.0 nM
Chain of eIF-2-alpha kinase GCN2 (Homo sapiens), Q9P2K8 [S808G] (Q9P2K8 whole entry S808G): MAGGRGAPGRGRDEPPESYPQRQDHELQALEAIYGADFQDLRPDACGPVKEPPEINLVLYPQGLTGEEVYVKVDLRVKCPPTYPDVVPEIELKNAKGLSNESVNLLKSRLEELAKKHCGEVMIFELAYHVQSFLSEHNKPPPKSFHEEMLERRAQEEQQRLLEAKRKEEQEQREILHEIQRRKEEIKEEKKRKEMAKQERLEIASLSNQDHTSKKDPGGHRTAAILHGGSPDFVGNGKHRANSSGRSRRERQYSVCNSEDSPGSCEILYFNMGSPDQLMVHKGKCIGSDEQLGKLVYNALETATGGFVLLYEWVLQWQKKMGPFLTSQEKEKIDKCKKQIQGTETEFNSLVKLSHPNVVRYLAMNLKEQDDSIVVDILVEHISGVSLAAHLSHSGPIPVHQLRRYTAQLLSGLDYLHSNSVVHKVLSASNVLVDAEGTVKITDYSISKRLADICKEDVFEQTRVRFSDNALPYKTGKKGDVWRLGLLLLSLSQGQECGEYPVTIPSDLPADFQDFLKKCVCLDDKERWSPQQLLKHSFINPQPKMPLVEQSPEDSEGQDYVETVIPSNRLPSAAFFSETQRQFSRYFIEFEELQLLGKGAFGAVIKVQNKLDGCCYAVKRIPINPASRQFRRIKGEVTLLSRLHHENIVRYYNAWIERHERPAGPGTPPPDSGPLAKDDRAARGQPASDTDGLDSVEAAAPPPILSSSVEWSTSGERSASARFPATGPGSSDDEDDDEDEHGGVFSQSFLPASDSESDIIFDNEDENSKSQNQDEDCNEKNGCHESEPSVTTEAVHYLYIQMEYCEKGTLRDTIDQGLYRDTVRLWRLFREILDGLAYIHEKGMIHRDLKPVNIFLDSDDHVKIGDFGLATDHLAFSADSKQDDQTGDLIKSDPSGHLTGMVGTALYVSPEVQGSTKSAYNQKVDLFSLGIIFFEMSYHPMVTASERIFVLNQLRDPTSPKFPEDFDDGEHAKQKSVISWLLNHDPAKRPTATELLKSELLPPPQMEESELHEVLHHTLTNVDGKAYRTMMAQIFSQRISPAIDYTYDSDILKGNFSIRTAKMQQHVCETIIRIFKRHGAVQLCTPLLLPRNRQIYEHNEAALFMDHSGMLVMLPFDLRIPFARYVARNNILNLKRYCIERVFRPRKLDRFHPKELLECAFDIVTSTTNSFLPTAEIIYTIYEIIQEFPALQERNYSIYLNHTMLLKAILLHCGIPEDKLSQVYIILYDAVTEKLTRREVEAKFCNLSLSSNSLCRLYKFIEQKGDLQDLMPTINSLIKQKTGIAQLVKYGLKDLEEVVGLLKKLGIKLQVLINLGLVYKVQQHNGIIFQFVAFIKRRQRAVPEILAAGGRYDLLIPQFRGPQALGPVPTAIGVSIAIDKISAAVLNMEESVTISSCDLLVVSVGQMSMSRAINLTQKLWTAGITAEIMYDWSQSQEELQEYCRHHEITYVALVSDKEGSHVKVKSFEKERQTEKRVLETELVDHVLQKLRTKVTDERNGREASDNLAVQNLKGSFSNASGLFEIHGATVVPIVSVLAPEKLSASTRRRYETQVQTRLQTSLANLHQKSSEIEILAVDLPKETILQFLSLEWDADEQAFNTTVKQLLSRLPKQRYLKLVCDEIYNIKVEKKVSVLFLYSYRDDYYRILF

[5] = target: Cyclin-dependent kinase 3 (Homo sapiens) (UniProt Q00526); settings: Compound concentration 1000.0 nM
[6] = target: TRAF2 and NCK-interacting protein kinase (Homo sapiens) (UniProt Q9UKE5); settings: Compound concentration 1000.0 nM
Chain of TRAF2 and NCK-interacting protein kinase (Homo sapiens) (Q9UKE5 whole entry, looked up): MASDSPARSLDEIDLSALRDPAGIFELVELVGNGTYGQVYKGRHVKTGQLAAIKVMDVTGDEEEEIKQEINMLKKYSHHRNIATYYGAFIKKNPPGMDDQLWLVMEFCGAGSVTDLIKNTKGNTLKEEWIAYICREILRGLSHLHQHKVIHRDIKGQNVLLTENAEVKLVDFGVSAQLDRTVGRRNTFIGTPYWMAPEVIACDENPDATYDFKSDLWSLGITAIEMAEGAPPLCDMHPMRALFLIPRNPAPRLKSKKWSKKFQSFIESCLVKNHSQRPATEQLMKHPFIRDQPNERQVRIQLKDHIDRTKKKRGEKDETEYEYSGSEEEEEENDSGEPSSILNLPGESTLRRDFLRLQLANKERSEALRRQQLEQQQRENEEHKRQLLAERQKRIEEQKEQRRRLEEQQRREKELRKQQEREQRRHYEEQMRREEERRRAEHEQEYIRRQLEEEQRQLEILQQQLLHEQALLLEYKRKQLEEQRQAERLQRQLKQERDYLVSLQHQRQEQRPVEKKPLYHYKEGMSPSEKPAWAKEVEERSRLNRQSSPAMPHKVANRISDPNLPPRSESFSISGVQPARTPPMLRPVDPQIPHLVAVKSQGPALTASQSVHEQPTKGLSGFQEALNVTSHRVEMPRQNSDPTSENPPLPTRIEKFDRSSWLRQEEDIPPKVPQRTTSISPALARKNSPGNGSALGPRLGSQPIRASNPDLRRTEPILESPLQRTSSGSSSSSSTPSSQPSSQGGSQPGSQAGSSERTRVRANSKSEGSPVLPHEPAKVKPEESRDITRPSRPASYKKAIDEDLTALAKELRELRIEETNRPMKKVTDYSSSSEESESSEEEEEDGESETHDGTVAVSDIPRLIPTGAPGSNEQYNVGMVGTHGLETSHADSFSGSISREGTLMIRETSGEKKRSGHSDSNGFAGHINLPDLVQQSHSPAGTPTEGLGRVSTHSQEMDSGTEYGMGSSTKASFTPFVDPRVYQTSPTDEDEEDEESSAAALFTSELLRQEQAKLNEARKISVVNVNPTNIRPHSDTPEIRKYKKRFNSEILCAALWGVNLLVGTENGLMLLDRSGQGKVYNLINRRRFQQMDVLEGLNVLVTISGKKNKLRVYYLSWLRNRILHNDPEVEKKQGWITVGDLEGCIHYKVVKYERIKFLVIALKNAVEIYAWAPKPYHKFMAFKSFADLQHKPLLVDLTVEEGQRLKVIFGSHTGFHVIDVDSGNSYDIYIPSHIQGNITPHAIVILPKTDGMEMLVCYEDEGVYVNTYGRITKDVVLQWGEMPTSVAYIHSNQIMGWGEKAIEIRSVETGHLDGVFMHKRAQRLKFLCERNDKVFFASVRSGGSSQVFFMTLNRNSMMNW

[7] = target: Rho-associated protein kinase 1 (Homo sapiens) (UniProt Q13464); settings: Compound concentration 1000.0 nM
[8] = target: Serine/threonine-protein kinase pim-1 (Homo sapiens) (UniProt P11309); settings: Compound concentration 1000.0 nM
Chain of Serine/threonine-protein kinase pim-1 (Homo sapiens) (P11309 whole entry, looked up): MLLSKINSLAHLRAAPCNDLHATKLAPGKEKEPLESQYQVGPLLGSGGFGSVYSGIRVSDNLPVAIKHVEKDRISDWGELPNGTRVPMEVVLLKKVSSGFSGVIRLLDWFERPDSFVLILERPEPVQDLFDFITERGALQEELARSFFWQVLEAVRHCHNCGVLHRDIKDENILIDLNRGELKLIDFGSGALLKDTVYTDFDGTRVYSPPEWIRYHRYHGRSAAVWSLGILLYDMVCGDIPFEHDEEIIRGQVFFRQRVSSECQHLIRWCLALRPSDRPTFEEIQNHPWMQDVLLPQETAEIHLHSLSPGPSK

[9] = tested on: Tyrosine-protein kinase ABL1 (Homo sapiens), P00519 [T315I]; settings: Compound concentration 1000.0 nM
[10] = target: 5-hydroxytryptamine receptor 2B (Homo sapiens) (UniProt P41595); settings: Compound concentration 10.0 uM
Chain of 5-hydroxytryptamine receptor 2B (Homo sapiens) (P41595 whole entry): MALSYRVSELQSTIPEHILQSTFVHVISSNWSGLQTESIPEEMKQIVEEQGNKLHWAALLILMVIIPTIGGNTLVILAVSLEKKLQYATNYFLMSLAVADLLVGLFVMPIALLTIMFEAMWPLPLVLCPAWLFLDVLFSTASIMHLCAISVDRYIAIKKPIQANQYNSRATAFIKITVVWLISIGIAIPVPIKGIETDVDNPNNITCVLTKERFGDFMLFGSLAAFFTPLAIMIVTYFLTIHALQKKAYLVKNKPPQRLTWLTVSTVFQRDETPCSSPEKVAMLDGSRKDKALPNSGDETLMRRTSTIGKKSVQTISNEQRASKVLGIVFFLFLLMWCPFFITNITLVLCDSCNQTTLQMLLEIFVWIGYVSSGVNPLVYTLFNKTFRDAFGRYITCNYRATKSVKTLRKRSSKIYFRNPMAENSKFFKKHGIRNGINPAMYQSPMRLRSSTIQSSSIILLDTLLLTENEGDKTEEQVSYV

[11] = target: T2, Cyclin-dependent kinase-like 2 (Homo sapiens) (UniProt Q92772); settings: Compound concentration 1000.0 nM
T2 sequence (whole entry): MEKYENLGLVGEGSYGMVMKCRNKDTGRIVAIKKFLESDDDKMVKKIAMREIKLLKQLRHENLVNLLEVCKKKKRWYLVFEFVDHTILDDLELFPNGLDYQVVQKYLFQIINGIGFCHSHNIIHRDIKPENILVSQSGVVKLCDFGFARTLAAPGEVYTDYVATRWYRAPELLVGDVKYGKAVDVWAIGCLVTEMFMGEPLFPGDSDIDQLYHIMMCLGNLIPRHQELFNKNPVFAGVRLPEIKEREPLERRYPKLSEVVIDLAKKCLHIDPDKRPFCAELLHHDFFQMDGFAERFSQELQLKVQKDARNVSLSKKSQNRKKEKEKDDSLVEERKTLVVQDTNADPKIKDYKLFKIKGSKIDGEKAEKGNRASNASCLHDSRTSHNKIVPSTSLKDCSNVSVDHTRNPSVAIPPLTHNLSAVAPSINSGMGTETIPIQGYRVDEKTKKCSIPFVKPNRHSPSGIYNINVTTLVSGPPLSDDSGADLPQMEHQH

[12] = target: 5-hydroxytryptamine receptor 6 (Homo sapiens) (UniProt P50406); settings: Compound concentration 10.0 uM
Chain of 5-hydroxytryptamine receptor 6 (Homo sapiens) (P50406 whole entry): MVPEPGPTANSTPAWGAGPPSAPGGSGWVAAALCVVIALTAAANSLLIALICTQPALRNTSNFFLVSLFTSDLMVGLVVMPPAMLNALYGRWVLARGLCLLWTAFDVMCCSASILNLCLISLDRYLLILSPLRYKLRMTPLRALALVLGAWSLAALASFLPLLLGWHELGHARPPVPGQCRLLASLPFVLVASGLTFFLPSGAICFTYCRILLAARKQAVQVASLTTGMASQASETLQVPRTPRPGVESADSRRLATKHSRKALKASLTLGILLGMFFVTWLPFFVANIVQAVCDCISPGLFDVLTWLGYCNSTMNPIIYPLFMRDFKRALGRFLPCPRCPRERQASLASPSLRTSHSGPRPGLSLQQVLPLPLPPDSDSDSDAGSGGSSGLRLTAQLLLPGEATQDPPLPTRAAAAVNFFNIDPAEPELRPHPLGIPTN

[13] = target: Calcium/calmodulin-dependent protein kinase kinase 2 (Homo sapiens) (UniProt Q96RR4); settings: Compound concentration 1000.0 nM
Chain of Calcium/calmodulin-dependent protein kinase kinase 2 (Homo sapiens) (Q96RR4 2-588 limits assumed): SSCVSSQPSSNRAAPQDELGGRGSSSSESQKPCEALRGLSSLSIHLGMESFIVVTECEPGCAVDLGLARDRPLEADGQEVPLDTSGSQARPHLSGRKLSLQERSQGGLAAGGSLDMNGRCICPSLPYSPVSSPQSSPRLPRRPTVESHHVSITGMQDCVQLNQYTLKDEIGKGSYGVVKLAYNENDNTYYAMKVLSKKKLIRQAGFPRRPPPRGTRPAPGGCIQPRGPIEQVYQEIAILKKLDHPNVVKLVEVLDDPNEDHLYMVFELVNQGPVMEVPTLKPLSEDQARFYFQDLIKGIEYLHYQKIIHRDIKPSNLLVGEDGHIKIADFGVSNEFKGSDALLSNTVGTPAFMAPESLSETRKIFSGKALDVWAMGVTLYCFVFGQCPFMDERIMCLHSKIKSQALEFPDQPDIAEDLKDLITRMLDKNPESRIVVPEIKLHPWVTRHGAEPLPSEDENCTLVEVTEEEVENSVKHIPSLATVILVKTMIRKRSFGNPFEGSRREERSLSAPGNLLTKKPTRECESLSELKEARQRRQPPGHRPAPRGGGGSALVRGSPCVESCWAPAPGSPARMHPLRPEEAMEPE

[14] = target: Serine/threonine-protein kinase Nek6 (Homo sapiens) (UniProt Q9HC98); settings: Compound concentration 1000.0 nM
[15] = target: Serine/threonine-protein kinase Nek10 (Homo sapiens) (UniProt Q6ZWH5); settings: Compound concentration 1000.0 nM
[16] = target: Serine/threonine-protein kinase LATS2 (Homo sapiens) (UniProt Q9NRM7); settings: Compound concentration 1000.0 nM

Cc1nc(C2CCN(C(=O)c3ccc(OC(F)(F)F)cc3N)CC2)c2ncc(N3CCN(C)CC3)cc2n1 [BAY-693]
inactive: inhibition [1] -9.85% | residual activity [2] 100% | residual activity [3] 77% | residual activity [4] 90% | residual activity [5] 100% | residual activity [6] 100% | residual activity [7] 100% | residual activity [8] 100% | residual activity [9] 89% | inhibition [10] -1.28% | residual activity [11] 100% | inhibition [12] -1.38% | residual activity [13] 100% | residual activity [14] 100% | residual activity [15] 100% | residual activity [16] 100%

CN1CCN(c2cnc3c(C4CCN(C(=O)c5ccc(OC(F)(F)F)cc5N)CC4)ncnc3c2)CC1 [BAY-885]
inactive: inhibition [1] 1.11% | residual activity [2] 100% | residual activity [3] 83% | residual activity [4] 99% | residual activity [5] 100% | residual activity [6] 100% | residual activity [7] 100% | residual activity [8] 90% | residual activity [9] 100% | inhibition [10] 3.56% | residual activity [11] 100% | inhibition [12] -4.69% | residual activity [13] 100% | residual activity [14] 92% | residual activity [15] 100% | residual activity [16] 100%
